Laboratory results from patent publication US20240217966A1, “PHARMACEUTICAL COMPOSITION CONTAINING GLP-1 RECEPTOR AGONIST HAVING FUSED RING” (Shionogi & Co., Ltd., priority 2021, published 2024).
Read-outs that look alike come from different tables or passages of the source.

Biological target: T1, Human GLP-1 receptor (Homo sapiens, UniProt P43220)
T1 construct: expressed in transfected cells
Assay: Measurement of GLP-1 receptor agonist activity (cAMP assay)
Format: cell-based
Method: Test Example 1: (Measurement of GLP-1 Receptor Agonist Activity)
Human GLP-1 receptor stably expressing cells (hGLP-1R/CHO-K1 cells) are cultured in an α-MEM medium (Sigma) containing 10% FBS (Hyclone), 2% GlutaMAX (Gibco), 1% G418 (Nacalai Tesque), and 1% Penicillin-Streptomycin Mixed Solution (Sigma) at 37° C. under 5% CO2 conditions, and recovered by treating a 10 fold diluted 5.0 g/l-trypsin/5.3 mmol/l-EDTA solution (Nacalai Tesque) and cryopreserved.
A DMSO solution containing the compound of the present invention or human GLP-1 (7-36) (Phoenix Pharmaceuticals) is dispensed into a 384-well microplate (Greiner) at 62.5 nL/well, and in addition, 400 μM Forskolin (Nacalai Tesque) is dispensed therein at 7.5 nL/well. Subsequently, the frozen GLP-1 R/CHO-K1 cells are thawed in a thermostatic bath at 37° C., suspended in HBSS buffer (GIBCO) containing 0.1% BSA (Sigma), 20 mM HEPES (GIBCO), 0.1 mM IBMX (Sigma), and 0.2 mM RO20-1724 (Calbiochem) at 2×10^4 cells/mL, and the cell suspension is added at 6 μL/well. The solution was incubated at 37° C. for 1 hour and intracellular cAMP concentration is measured using cAMP Gs dynamic kit (Cisbio) according to the protocol attached to the product. Specifically, cAMP-d2 and Anti-cAMP-Cryptate are each added in an amount of 3 μL/well, the mixture is incubated at room temperature for 1 hour, and time-resolved fluorescence is measured using PHERAstar (BMG Labtech).
The dilution concentration or the dilution solvent are changed as necessary.
The compounds of the present invention were tested essentially as described above.

[1] = CHO-K1, hGLP-1R/CHO-K1 cells, cAMP, 100% = human GLP-1 (7-36) at 2 nM, 0% = DMSO only, read-out: Emax(%)
[2] = hGLP-1R/CHO-K1 cells, cAMP increase, 37° C. 1 hour
[3] = CHO-K1, maximum effect, cAMP increase in GLP-1 R/CHO-K1 cells, 2 nM human GLP-1 (7-36) = 100%, DMSO only = 0%, read-out: Emax
[4] = cAMP increase in GLP-1 R/CHO-K1 cells, 2 nM human GLP-1 (7-36) = 100%, DMSO only = 0%

T1 sequence (P43220 24-463): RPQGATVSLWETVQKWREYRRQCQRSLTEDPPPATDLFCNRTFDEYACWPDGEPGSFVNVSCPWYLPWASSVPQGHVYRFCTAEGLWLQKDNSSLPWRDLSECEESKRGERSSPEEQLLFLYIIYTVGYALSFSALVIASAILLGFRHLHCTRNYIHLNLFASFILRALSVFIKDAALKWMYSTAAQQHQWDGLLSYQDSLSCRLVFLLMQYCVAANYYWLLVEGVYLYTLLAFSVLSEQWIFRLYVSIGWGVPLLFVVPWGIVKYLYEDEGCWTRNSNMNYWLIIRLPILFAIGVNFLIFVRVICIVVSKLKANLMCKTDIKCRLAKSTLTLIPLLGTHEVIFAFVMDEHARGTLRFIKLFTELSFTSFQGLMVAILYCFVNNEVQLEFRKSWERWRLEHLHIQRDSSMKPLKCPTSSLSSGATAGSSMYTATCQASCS

Emax [1]	EC50 [2]	Emax [3]	EC50 [4]	Compound
126%	2.51 nM	–	–	C[C@H]1c2cc(OCc3ccc(C#N)cc3)c(C(F)(F)F)cc2CCN1Cc1nc2ccc(C(=O)O)cc2n1C[C@@H]1CCO1 [Compound I-111]
116%	7.28 nM	–	–	Cn1ccc(COc2cc3c(cc2C(F)(F)F)CCN(Cc2nc4ccc(C(=O)O)cc4n2C[C@@H]2CCO2)C3)n1 [Compound I-069]
–	–	115%	0.0523 nM	COc1cc(Cl)ccc1COc1nc2c(cc1C(F)(F)F)CCN(Cc1nc3c(OC)cc(C(=O)O)cc3n1C[C@@H]1CCO1)C2 [Compound I-388]
109%	0.447 nM	–	–	C[C@H]1c2cc(OCc3ccc(Cl)cc3)c(C(F)(F)F)cc2CCN1Cc1nc2c(F)cc(C(=O)O)cc2n1C[C@@H]1CCO1 [Compound I-205]
101%	3.5 nM	–	–	O=C(O)c1ccc2nc(CN3CCc4cc(C(F)(F)F)c(OCc5c(F)cc(F)cc5F)cc4C3)n(C[C@@H]3CCO3)c2c1 [Compound I-107]
103%	2.74 nM	–	–	C[C@H]1c2cc(OCc3ccccc3Cl)c(C(F)(F)F)cc2CCN1Cc1nc2ccc(C(=O)O)cc2n1C[C@@H]1CCO1 [Compound I-165]
–	–	118%	1.66 nM	N#Cc1ccc(COc2nc3c(cc2C(F)(F)F)CCN(Cc2nc4ccc(C(=O)O)cc4n2C[C@@H]2CCO2)C3)c(F)c1 [Compound I-271]
113%	0.946 nM	–	–	C[C@H]1c2cc(OCc3ccc(Cl)cn3)c(C(F)(F)F)cc2CCN1Cc1nc2ccc(C(=O)O)cc2n1C[C@@H]1CCO1 [Compound I-172]

The remaining lines, values behind:

Compound	Emax [1]	EC50 [2]	Emax [3]	EC50 [4]
COc1cc(C(=O)O)cc2c1nc(CN1CCc3cc(C(F)(F)F)c(OCc4ccc(F)cc4)nc3[C@@H]1C)n2C[C@@H]1CCO1 [Compound I-284]	–	–	119%	0.016 nM
COc1cc(C(=O)O)cc2c1nc(CN1CCc3cc(Cl)c(OCc4cc(F)c(Cl)cc4F)cc3[C@@H]1C)n2C[C@@H]1CCO1 [Compound I-346]	–	–	117%	0.354 nM
C[C@H]1c2cc(OCc3ccc(Cl)cc3Cl)c(Cl)cc2CCN1Cc1nc2ccc(C(=O)O)nc2n1C[C@@H]1CCO1 [Compound I-316]	–	–	117%	1.66 nM
C[C@H]1c2nc(OCc3ccc(Cl)cc3)c(C(F)(F)F)cc2CCN1Cc1nc2ccc(C(=O)O)nc2n1C[C@@H]1CCO1 [Compound I-348]	–	–	129%	0.206 nM
COc1cc(C(=O)O)cc2c1nc(CN1CCc3cc(C(F)(F)F)c(OCc4ccc(C5CC5)cc4)cc3[C@@H]1C)n2C[C@@H]1CCO1 [Compound I-228]	–	–	106%	2.41 nM
C[C@H]1c2cc(OCc3ccc(Cl)cn3)c(Cl)cc2CCN1Cc1nc2ccc(C(=O)O)cc2n1C[C@@H]1CCO1 [Compound I-309]	–	–	84.3%	2.28 nM
Cc1ccc(COc2nc3c(cc2C(F)(F)F)CCN(Cc2nc4ccc(C(=O)O)c(F)c4n2C[C@@H]2CCO2)[C@H]3C)cc1 [Compound I-353]	–	–	115%	0.0558 nM
C[C@H]1c2cc(OCc3ccccc3Cl)c(C(F)(F)F)cc2CCN1Cc1nc2ccc(C(=O)O)nc2n1C[C@@H]1CCO1 [Compound I-182]	126%	3.31 nM	–	–
C[C@H]1c2cc(OCc3ccc(Cl)cc3)c(Cl)cc2CCN1Cc1nc2ccc(C(=O)O)c(F)c2n1C[C@@H]1CCO1 [Compound I-319]	–	–	95.3%	2.43 nM
C[C@H]1c2nc(OCc3ccc(Cl)cc3)c(C(F)(F)F)cc2CCN1Cc1nc2c(F)cc(C(=O)O)cc2n1C[C@@H]1CCO1 [Compound I-239]	–	–	95.3%	0.0882 nM
COc1cc(C(=O)O)cc2c1nc(CN1CCc3cc(C(F)(F)F)c(OCc4ccc(Cl)cc4)nc3[C@@H]1C)n2C[C@@H]1CCO1 [Compound I-374]	–	–	100%	0.0208 nM
C[C@H]1c2nc(OCc3ccc(F)cc3)c(C(F)(F)F)cc2CCN1Cc1nc2ccc(C(=O)O)nc2n1C[C@@H]1CCO1 [Compound I-290]	–	–	118%	0.266 nM
C[C@H]1c2cc(OCc3ccc(Cl)cc3Cl)c(C(F)(F)F)cc2CCN1Cc1nc2ccc(C(=O)O)c(F)c2n1C[C@@H]1CCO1 [Compound I-201]	123%	0.274 nM	–	–
